The results in this text go back to article PMC12073189, “Synthesis and Evaluation of a Novel Zuranolone Analog with High GABAA Receptor PAM Activity and Excellent Pharmacokinetic Profiles” (Molecules, 2025).

Structures are written as SMILES.

The target of one data set is T1, α4β3δ GABAA receptor (Homo sapiens, UniProt P28472+P48169).
T1 construct: expressed in transfected cells; host or cells: CHO cells (transient expression)
Kind of data set: Whole-cell electrophysiology of GABA-evoked currents, CHO cells. Format: cell-based. The settings on record: for EC50 / Emax: CHO cells, n = 3; for EC50: 1 μmol/L GABA (EC20), read-out: α4β3δ EC50; for Emax: current induced by 1 μmol/L GABA = 100%. As for the experimental part: (§1) The α1β2γ2 and α4β3δ GABAA receptor subtypes, representing synaptic and extrasynaptic subunit compositions in neurons, are widely utilized for screening new NAS drugs. In this study, a preliminary SAR study was conducted on a series of Zuranolone analogs using the LogP values predicted by ADMETlab3.0 software, recombinant human GABAA receptor cell lines, and in vitro liver microsome stability assays. The results are summarized in Table 1, Table 2, and Table 3, respectively.
(§2) The effects of Zuranolone and synthetic analogs on GABA-evoked currents were assessed in LTK cells stably expressing α1β2γ2 GABAA receptor subunits (n = 3) or CHO cells transiently expressing α4β3δ receptors (n = 3). Whole-cell mode recordings were conducted using the HEKA EPC-10 amplifier and analyzed with PatchMaster software (version 2x90, HEKA Elektronik, Lambrecht, Germany). High-throughput whole-cell recordings were performed using the Q-Patch method from Sophion. Test substances were dissolved in DMSO (dimethyl sulfoxide) to prepare 10 mmol/L stock solutions, then diluted with perfusion bath solution to concentrations ranging from 0.01 to 10 μmol/L. In this experiment, the effects of Zuranolone and its synthetic analogs on GABA-induced currents were examined in the presence of a submaximal agonist concentration at 1 μmol/L GABA (EC20). Cells were pre-incubated with increasing doses of test substances for 30 s, followed by 2 s of GABA stimulation, and currents were recorded. The maximum efficacy (Emax) of the GABAA receptor is expressed with the current induced by 1 μmol/L GABA taken as 100%, and the percentage after treatment with the test compound is calculated. The EC50 values are determined by fitting the three concentration–response curves recorded from three cells.

The target of the next data set is T2, α1β2γ2 GABAA receptor (Homo sapiens, UniProt P14867+P47870).
T2 construct: expressed in transfected cells
The data set is described as follows: Whole-cell electrophysiology of GABA-evoked currents, LTK cells. Particulars: for EC50 / Emax: LTK cells, n = 3; for EC50: 1 μmol/L GABA (EC20), read-out: α1β2γ2 EC50; for Emax: current induced by 1 μmol/L GABA = 100%; for activity as % of that of Zuranolone: GABAA receptor subtypes. Type of data set: cell-based. The protocol:
as §1, §2

Data set [1] in a line: Liver microsome metabolic stability (RLM). Type of data set: in vitro ADME, rat. Particulars: pH 7.4; rat liver microsomes; read-out: RLM T1/2. The protocol:
(§3) We quantified S1–S15 and Zuranolone using a UPLC-MS/MS (Agilent 1290 Infinity II UHPLC (Agilent Technologies, Santa Clara, CA, USA) coupled with a QTRAP 5500 MS/MS (ESI source) (SCIEX, Redwood City, CA, USA for MS/MS). The method assessed the content level of S9 and Zuranolone in microsome metabolism and in rat brain tissue and plasma. An ACQUITY UPLC Peptide BEH C18 column (Waters; 50 × 2.1 mm, 1.7 μm; 60 °C; Waters Corporation, Milford, MA, USA) was used with a mobile phase of 0.02% propionic acid in water (A) and acetonitrile (B). The gradient elution of the mobile phase B is carried out as follows: it is 10% from 0 to 0.5 min, 90% from 0.8 to 2.5 min, and 10% from 2.8 to 3.5 min, with a flow rate of 0.40 mL/min. Quantitative analysis was performed on a QTRAP 5500 MS (SCIEX, Redwood City, CA, USA) in positive ionization mode with MRM (multiple reaction monitoring), using progesterone-d9 as the internal standard. MRM transitions and parameters were optimized for each analyte, with collision energies of 25 V (S1–S15), 23 V (Zuranolone), and 30 V (IS), and declustering potentials of 80 V (S1–S15), 90 V (Zuranolone), and 180 V (IS). Other conditions were as follows: curtain gas 10 psi, collision gas ‘medium’, ion spray voltage 5500 V, temperature 500 °C, and ionization source gases 1 and 2 at 50 psi.
(§4) To evaluate the metabolic stability of compounds S1–S15 and Zuranolone in RLM and HLM, we designed the following in vitro liver microsome metabolism assay protocol. In a 1.5 mL centrifuge tube, sequentially add 173 μL of PBS (0.1 M, pH 7.4), 5 μL of liver microsomes (20 mg/mL), and 2 μL of the test compound (100 μmol/L). After thorough mixing, pre-incubate at 37 °C for 10 min. Subsequently, add 20 μL of NADPH to initiate the metabolism, with a parallel control without NADPH, to validate the background signal. Samples were collected at 0, 5, 10, 20, 30, and 60 min post-reaction initiation. At each designated time point, we quenched the reaction with ice-cold acetonitrile (600 μL). After centrifuging the mixture, we analyzed the supernatant using UPLC-MS/MS. For data analysis, the compound concentration at 0 min was set as 100%, with concentrations at subsequent time points expressed as residual percentages relative to the initial value, and the in vitro half-life (T1/2) and intrinsic clearance (CLint) were calculated.
A general note: Liver microsomes are a subcellular fraction often used to study metabolism.

Data set [2] can be described thus: Liver microsome metabolic stability (HLM). Particulars: pH 7.4; human liver microsomes; read-out: HLM T1/2. Format: in vitro ADME, human. As for the experimental part:
as §3, §4

T1 sequence (P48169 36-554): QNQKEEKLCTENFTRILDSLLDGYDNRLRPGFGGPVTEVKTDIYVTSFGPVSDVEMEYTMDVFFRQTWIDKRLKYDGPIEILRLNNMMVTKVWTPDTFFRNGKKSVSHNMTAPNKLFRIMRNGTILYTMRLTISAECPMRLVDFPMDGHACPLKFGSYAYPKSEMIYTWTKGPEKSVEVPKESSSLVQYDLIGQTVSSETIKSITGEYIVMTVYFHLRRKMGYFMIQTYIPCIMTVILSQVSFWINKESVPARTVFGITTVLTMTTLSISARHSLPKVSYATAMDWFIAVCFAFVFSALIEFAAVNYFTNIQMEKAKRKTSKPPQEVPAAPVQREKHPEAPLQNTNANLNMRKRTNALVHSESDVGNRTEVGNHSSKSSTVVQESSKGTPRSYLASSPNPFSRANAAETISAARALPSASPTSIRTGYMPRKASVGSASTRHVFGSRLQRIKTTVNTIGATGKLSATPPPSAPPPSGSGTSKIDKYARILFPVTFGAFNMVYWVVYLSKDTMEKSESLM
T1 sequence (P28472 26-473): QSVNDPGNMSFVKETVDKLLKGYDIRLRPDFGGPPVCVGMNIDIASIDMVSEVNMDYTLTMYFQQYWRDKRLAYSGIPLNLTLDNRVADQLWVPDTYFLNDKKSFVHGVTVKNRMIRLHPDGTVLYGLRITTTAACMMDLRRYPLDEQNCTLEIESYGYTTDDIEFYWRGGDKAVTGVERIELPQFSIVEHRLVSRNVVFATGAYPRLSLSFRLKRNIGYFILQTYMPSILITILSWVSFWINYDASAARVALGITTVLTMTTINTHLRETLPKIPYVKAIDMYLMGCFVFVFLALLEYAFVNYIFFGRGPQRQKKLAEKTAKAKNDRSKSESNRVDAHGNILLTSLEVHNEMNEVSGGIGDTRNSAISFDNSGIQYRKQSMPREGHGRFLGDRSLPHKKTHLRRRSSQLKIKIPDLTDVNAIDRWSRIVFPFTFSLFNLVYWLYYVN
T1 sequence (O14764 25-452 partner): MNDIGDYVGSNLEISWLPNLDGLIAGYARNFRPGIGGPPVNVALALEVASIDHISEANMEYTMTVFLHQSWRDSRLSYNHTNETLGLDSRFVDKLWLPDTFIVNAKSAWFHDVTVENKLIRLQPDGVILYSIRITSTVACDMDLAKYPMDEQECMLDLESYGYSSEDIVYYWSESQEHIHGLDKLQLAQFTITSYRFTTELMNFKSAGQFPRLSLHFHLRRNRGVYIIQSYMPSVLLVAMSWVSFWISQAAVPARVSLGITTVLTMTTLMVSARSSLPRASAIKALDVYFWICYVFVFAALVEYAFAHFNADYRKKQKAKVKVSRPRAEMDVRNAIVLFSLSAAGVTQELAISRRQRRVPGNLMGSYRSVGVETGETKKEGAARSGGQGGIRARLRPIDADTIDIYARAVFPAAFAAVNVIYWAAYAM
T2 sequence (P14867 28-456): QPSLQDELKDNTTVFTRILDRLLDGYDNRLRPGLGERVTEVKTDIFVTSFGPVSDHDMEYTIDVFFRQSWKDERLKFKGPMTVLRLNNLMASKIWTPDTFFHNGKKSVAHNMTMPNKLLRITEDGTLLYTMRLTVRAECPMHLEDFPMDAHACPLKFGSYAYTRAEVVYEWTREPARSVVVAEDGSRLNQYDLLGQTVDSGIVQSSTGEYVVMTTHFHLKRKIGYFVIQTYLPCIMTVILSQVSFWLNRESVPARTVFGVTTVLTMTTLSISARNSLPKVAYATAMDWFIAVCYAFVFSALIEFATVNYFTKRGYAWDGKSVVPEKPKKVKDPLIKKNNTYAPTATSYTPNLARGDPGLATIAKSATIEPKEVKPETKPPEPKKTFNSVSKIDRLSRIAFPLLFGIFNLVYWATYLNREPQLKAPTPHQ
T2 sequence (P47870 25-512 limits assumed): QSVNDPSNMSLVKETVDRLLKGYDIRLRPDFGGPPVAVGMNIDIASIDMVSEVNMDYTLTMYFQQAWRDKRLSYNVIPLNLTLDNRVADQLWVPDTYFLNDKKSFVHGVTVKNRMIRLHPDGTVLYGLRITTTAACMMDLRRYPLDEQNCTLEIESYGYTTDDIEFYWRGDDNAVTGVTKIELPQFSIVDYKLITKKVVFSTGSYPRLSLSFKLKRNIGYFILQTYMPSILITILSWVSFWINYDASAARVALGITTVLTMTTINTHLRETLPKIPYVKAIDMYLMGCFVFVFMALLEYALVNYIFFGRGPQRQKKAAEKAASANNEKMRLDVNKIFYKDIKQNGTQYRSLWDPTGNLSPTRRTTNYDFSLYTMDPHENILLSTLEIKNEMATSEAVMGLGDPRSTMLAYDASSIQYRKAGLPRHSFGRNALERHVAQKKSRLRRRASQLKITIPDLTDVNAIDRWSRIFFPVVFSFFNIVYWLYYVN
T2 sequence (P18507 40-475 partner): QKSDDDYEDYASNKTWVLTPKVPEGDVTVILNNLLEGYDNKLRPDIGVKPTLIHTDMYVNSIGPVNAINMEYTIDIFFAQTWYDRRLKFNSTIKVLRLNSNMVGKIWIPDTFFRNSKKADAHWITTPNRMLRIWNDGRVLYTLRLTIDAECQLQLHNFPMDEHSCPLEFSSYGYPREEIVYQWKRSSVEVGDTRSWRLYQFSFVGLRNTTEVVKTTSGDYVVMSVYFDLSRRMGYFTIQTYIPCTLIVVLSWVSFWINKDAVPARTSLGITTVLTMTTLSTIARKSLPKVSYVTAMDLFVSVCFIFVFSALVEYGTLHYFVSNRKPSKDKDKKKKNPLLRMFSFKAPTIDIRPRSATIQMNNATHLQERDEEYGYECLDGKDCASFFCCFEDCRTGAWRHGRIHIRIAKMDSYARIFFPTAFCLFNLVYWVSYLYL

As a reminder, the EC50 is the concentration giving half of the maximal effect. The term Emax denotes the greatest response seen or fitted, relative to the assay's reference. For the compound `COCCn1ncn(CC(=O)[C@H]2CC[C@H]3[C@@H]4CC[C@@H]5C[C@](C)(O)CC[C@@H]5[C@H]4CC[C@]23C)c1=O` [S1], the EC50 was 86 ± 25 nM on α4β3δ GABAA receptor and 227 ± 52 nM on α1β2γ2 GABAA receptor. For the same compound, the Emax at α4β3δ GABAA receptor came to 609 ± 83%; on α1β2γ2 GABAA receptor it was 735 ± 75%. Besides, the results for the half-life at 1 µM in data set [1] and in data set [2] were 11 min and 34 min, respectively.

As for `C[C@@]1(O)CC[C@H]2[C@H](CC[C@@H]3[C@@H]2CC[C@]2(C)[C@@H](C(=O)Cn4ncn(-c5ccc(F)cc5)c4=O)CC[C@@H]32)C1` [S10], the EC50 worked out at 148 ± 25 nM at α4β3δ GABAA receptor and 12.4 ± 5 nM on α1β2γ2 GABAA receptor. Besides, the figures for the Emax on α4β3δ GABAA receptor and on α1β2γ2 GABAA receptor were 428 ± 45% and 294 ± 52%, respectively. Moreover, the “activity as % of that of Zuranolone” value at α1β2γ2 GABAA receptor (not separated) was “less than 50%”. Moreover, the half-life at 1 μmol/L in data set [1] came to 10 min; in data set [2], 33 min.

For `C[C@@]1(O)CC[C@H]2[C@H](CC[C@@H]3[C@@H]2CC[C@]2(C)[C@@H](C(=O)Cn4cnn(-c5cccc(C(N)=O)c5)c4=O)CC[C@@H]32)C1` [S12], the EC50 on α4β3δ GABAA receptor came out at 159 ± 20 nM; on α1β2γ2 GABAA receptor, 153 ± 33 nM. Further, the results for the Emax at α4β3δ GABAA receptor and at α1β2γ2 GABAA receptor were 386 ± 50% and 764 ± 65%, respectively. Moreover, the “activity as % of that of Zuranolone” value at α1β2γ2 GABAA receptor (not separated) is recorded as “less than 50%”. Moreover, the half-life at 1 μmol/L in data set [1] stood at 18 min; in data set [2], 29 min.

For `C[C@@]1(O)CC[C@H]2[C@H](CC[C@@H]3[C@@H]2CC[C@]2(C)[C@@H](C(=O)Cn4cnn(-c5cccnc5)c4=O)CC[C@@H]32)C1` [S5], the EC50 on α4β3δ GABAA receptor was 61 ± 15 nM; at α1β2γ2 GABAA receptor, 373 ± 45 nM. In addition, the Emax came to 391 ± 64% at α4β3δ GABAA receptor and 773 ± 87% on α1β2γ2 GABAA receptor. For the same compound, the half-life at 1 μmol/L in data set [1] was 11 min; in data set [2] it was 24 min.

With `C[C@@]1(O)CC[C@H]2[C@H](CC[C@@H]3[C@@H]2CC[C@]2(C)[C@@H](C(=O)Cn4c(=O)n(-c5ccccc5)c5ccccc54)CC[C@@H]32)C1` [S15], the EC50 on α4β3δ GABAA receptor came to 55 ± 15 nM; at α1β2γ2 GABAA receptor it was 31 ± 12 nM. For the same compound, the Emax at α4β3δ GABAA receptor was 470 ± 94%; on α1β2γ2 GABAA receptor it was 305 ± 62%. For the same compound, the half-life at 1 μmol/L in data set [1] is 210 min; in data set [2], 248 min.

Take `C[C@@]1(O)CC[C@H]2[C@H](CC[C@@H]3[C@@H]2CC[C@]2(C)[C@@H](C(=O)Cn4cnn(-c5ccnc(C(F)F)c5)c4=O)CC[C@@H]32)C1` [S8]: the EC50 at α4β3δ GABAA receptor was determined as 49 ± 15 nM; on α1β2γ2 GABAA receptor, 83 ± 24 nM. Also, the Emax at α4β3δ GABAA receptor turned out to be 432 ± 55%; on α1β2γ2 GABAA receptor it was 600 ± 69%. Also, the results for the “potency as % of that of Zuranolone” value at α4β3δ GABAA receptor (extrasynaptic GABAA receptors) and on α1β2γ2 GABAA receptor (synaptic GABAA receptors) were 150% and 140%, respectively. Also, the results for the half-life at 1 μmol/L in data set [1] and in data set [2] were 29 min and 23 min, respectively.

Turning to `Cc1cc(-n2ncn(CC(=O)[C@H]3CC[C@H]4[C@@H]5CC[C@@H]6C[C@](C)(O)CC[C@@H]6[C@H]5CC[C@]34C)c2=O)cc(C)n1` [S4], the EC50 at α4β3δ GABAA receptor stood at 41 ± 19 nM; at α1β2γ2 GABAA receptor, 171 ± 40 nM. Moreover, the Emax on α4β3δ GABAA receptor came out at 563 ± 85%; on α1β2γ2 GABAA receptor, 691 ± 72%. Moreover, the “activity as % of that of Zuranolone” value on α1β2γ2 GABAA receptor (not separated) is reported as “less than 50%”.

As to `C[C@@]1(O)CC[C@H]2[C@H](CC[C@@H]3[C@@H]2CC[C@]2(C)[C@@H](C(=O)Cn4cnn(-c5cc(Cl)ccn5)c4=O)CC[C@@H]32)C1` [S7], the EC50 was 72 ± 21 nM at α4β3δ GABAA receptor and 109 ± 27 nM at α1β2γ2 GABAA receptor. For the same compound, the Emax was determined as 589 ± 63% on α4β3δ GABAA receptor and 624 ± 29% on α1β2γ2 GABAA receptor. Also, the “potency higher than Zuranolone” value on α1β2γ2 GABAA receptor (synaptic and extrasynaptic GABAA receptor subtypes, not separated) was “approximately 10%”. Also, the half-life at 1 μmol/L worked out at 21 min in data set [1] and 69 min in data set [2].

For the compound `C[C@@]1(O)CC[C@H]2[C@H](CC[C@@H]3[C@@H]2CC[C@]2(C)[C@@H](C(=O)Cn4ncn(CC5CC5)c4=O)CC[C@@H]32)C1` [S2], the EC50 at α4β3δ GABAA receptor amounted to 140 ± 10 nM; on α1β2γ2 GABAA receptor, 58 ± 10 nM. The Emax turned out to be 450 ± 35% at α4β3δ GABAA receptor and 320 ± 25% at α1β2γ2 GABAA receptor.

Regarding `COc1ccc(-n2ncn(CC(=O)[C@H]3CC[C@H]4[C@@H]5CC[C@@H]6C[C@](C)(O)CC[C@@H]6[C@H]5CC[C@]34C)c2=O)cn1` [S3], the EC50 at α4β3δ GABAA receptor worked out at 134 ± 32 nM; at α1β2γ2 GABAA receptor it was 167 ± 37 nM. In addition, the maximal response (Emax) turned out to be 474 ± 53% on α4β3δ GABAA receptor and 389 ± 50% at α1β2γ2 GABAA receptor. Moreover, the “activity as % of that of Zuranolone” value at α1β2γ2 GABAA receptor (not separated) is given as “less than 50%”. For the same compound, the half-life at 1 μmol/L in data set [1] amounted to 16 min; in data set [2], 73 min.

In the case of `C[C@@]1(O)CC[C@H]2[C@H](CC[C@@H]3[C@@H]2CC[C@]2(C)[C@@H](C(=O)Cn4cnn(-c5cc(F)cc(C#N)c5)c4=O)CC[C@@H]32)C1` [S13], the EC50 amounted to 37 ± 12 nM at α4β3δ GABAA receptor and 72 ± 16 nM on α1β2γ2 GABAA receptor. Moreover, the Emax at α4β3δ GABAA receptor was determined as 549 ± 101%; on α1β2γ2 GABAA receptor it was 518 ± 87%. Besides, the half-life at 1 μmol/L in data set [1] came out at 90 min; in data set [2], 40 min.

As for `C[C@@]1(O)CC[C@H]2[C@H](CC[C@@H]3[C@@H]2CC[C@]2(C)[C@@H](C(=O)Cn4cnn(CCOC(F)(F)F)c4=O)CC[C@@H]32)C1` [S14], the EC50 on α4β3δ GABAA receptor was 460 ± 59 nM; at α1β2γ2 GABAA receptor, 770 ± 104 nM. Besides, the values for the Emax at α4β3δ GABAA receptor and at α1β2γ2 GABAA receptor were 889 ± 126% and 576 ± 78%, respectively. The half-life at 1 μmol/L in data set [1] was found to be 23 min; in data set [2], 31 min.
